# Legend:
# [1] = target: hDAT (Homo sapiens (Human), UniProt Q01959); test: DAT radioligand binding assay ([125I]RTI-55, HEK-293 membranes); settings: (+)-enantiomers; read-out: DAT IC50
# Procedure: (§1) Recombinant HEK-293 cells expressing either the hSERT, hDAT, or hNET proteins were harvested from T-175 flasks as follows. The medium was removed from the flasks and the cells rinsed with HBSS without Ca and without Mg. The cells were then incubated for 5-10 minutes in 10 mM Tris-Cl, pH 7.5, 5 mM EDTA before the cells were lifted with a combination of pipetting and scraping, as needed. The cell suspension was collected into centrifuge bottles and homogenized for 30 seconds with a Polytron homogenizer. The suspension was centrifuged for 30 minutes at 32,000×g, 4° C. The supernatant was decanted and the pellet resuspended and homogenized in 50 mM Tris-Cl, pH 7.5, 1 mM EDTA for 10 seconds. The suspension was then centrifuged again for 30 minutes at 32,000×g, 4° C. The supernatant was decanted and the pellet resuspended in 50 mM Tris-Cl, pH 7.5, 1 mM EDTA and briefly homogenized. A Bradford assay (Bio-rad) was performed and the membrane preparation diluted to 2 mg/ml with 50 mM Tris-Cl, pH 7.5, 1 mM EDTA. Aliquots were prepared, and then frozen and stored at −80° C.
# Compounds were dissolved in 100% DMSO at a concentration 100 times the desired highest assay concentration, serially diluted 1:3 in 100% DMSO, and 0.4 μl/well of each solution was dispensed to a Nunc polypropylene, round bottom, 384-well plate. 100% inhibition is defined with 0.4 μl/well of 1 mM GBR-12935 dissolved in DMSO. 20 ul/well of a 2× membrane preparation (12.5 μg/ml in 30 mM sodium phosphate buffer, pH 7.9 at 4° C.) and 20 μl/well of a 2× radioligand solution ([…] [^125I]RTI-55 in 30 mM sodium phosphate buffer, pH 7.9 at 4° C.) were added to the well and the reaction incubated for 1 hour at room temperature. The contents of the assay plate were then transferred to a Millipore MultiscreenHTS GF/B filter plate which was pretreated with 0.5% PEI for at least one hour. The plate was vacuum-filtered and washed with 7 washes of 100 μl/well 50 mM Tris-Cl, pH 7.5, 120 mM NaCl, 5 mM KCl chilled to 4° C. The filtration and washing were completed in less than 90 seconds. The plates were air-dried overnight, 12 μl/well of MicroScint scintillation fluid added, and the plates counted in a Trilux.
# (§2) The raw data was normalized to percent inhibition using control wells defining 0% (DMSO only) and 100% (selective inhibitor) inhibition which were run on each plate. Each plate was run in triplicate, and the concentration response curve thus generated was fit using the four-parameter dose response equation, Y=Bottom+(Top-Bottom)/(1+10^((LogIC50−X)*HillSlope)) in order to determine the IC50 value for each compound. The radioligand concentration chosen for each assay corresponds to the Kd concentration determined through saturation binding analysis for each assay.
# [2] = target: hNET (Homo sapiens (Human), UniProt P23975); test: NET radioligand binding assay ([3H]nisoxetine, HEK-293 membranes); settings: (+)-enantiomers
# Chain of hNET (P23975 whole entry): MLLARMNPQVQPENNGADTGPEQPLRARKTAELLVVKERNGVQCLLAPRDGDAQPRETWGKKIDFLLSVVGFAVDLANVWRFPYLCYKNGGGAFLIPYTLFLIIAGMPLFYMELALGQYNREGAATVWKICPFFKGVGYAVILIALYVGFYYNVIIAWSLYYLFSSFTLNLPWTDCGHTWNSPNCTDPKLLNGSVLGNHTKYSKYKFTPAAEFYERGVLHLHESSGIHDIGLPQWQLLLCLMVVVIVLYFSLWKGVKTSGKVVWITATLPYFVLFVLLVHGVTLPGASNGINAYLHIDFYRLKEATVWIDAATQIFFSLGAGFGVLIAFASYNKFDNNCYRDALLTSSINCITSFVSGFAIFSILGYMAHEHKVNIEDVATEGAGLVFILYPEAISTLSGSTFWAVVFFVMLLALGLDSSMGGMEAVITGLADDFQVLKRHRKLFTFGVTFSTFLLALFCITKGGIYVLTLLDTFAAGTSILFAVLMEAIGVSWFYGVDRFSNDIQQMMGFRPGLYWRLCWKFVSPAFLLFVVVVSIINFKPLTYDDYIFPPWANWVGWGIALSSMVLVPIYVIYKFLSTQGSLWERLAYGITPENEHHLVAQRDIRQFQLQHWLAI
# Procedure: as §1
# Compounds were dissolved in 100% DMSO at a concentration 100 times the desired highest assay concentration, serially diluted 1:3 in 100% DMSO, and 1.0 μl/well of each solution was dispensed to a Nunc polypropylene, round bottom, 384-well plate. 100% inhibition is defined with 1.0 μl/well of 10 mM desipramine dissolved in DMSO. 50 μl/well of a 2× membrane preparation (0.4 mg/ml in 50 mM Tris-Cl, pH 7.5, 120 mM NaCl, 5 mM KCl) and 50 μl/well of a 2× radioligand solution (4 nM [^3H]nisoxetine in 50 mM Tris-Cl, pH 7.5, 120 mM NaCl, 5 mM KCl) were added to the well and the reaction incubated for 1 hour at room temperature. The contents of the assay plate were then transferred to a Millipore MultiscreenHTS GF/B filter plate which was pretreated with 0.5% PEI for at least one hour. The plate was vacuum filtered and washed with 7 washes of 100 μl/well 50 mM Tris-Cl, pH 7.5, 120 mM NaCl, 5 mM KCl chilled to 4° C. The filtration and washing were completed in less than 90 seconds. The plates were air-dried overnight, 12 μl/well of MicroScint scintillation fluid added, and the plates counted in a Trilux.
# as §2
# Chain of hDAT (Q01959 whole entry): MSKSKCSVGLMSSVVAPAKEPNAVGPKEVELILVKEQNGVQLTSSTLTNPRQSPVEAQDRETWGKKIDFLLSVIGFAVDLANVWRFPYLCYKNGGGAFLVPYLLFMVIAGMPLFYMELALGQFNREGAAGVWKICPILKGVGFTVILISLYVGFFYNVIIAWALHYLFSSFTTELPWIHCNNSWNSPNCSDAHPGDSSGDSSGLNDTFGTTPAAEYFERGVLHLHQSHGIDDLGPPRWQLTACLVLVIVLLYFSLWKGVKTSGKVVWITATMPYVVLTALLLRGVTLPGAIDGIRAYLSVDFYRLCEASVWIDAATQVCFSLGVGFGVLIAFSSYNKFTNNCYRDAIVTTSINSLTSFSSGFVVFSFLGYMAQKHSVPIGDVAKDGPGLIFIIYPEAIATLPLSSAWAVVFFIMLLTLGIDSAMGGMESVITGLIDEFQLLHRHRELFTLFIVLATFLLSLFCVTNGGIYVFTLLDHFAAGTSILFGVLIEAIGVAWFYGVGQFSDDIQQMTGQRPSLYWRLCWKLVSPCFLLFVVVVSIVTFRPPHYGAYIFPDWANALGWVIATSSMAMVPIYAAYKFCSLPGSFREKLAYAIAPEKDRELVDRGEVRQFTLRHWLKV
Structure (SMILES),IC50 [1] [nM],IC50 [2] [nM]
"CC1(C)NCC(c2ccc(Cl)c(Cl)c2)c2ccc(-c3cccnn3)cc21 (single isomer, unassigned) [Example 9, 4-(3,4-dichlorophenyl)-1,1-dimethyl-7-(pyridazin-3-yl)-1,2,3,4-tetrahydroisoquinoline]",1.8,133
"FC(F)Oc1ccc(-c2ccc3c(c2)CNCC3c2ccc(Cl)c(Cl)c2)nn1 (centres unmarked) [Example 12, 4-(3,4-dichlorophenyl)-7-(6-(difluoromethoxy)pyridazin-3-yl)-1,2,3,4-tetrahydroisoquinoline]",50.2,18.8
"CC1(C)NCC(c2ccc(Cl)c(Cl)c2)c2ccc(-c3ccc(N)nn3)cc21 (centres unmarked) [Example 13, 4-(3,4-dichlorophenyl)-7-(6-aminopyridazin-3-yl)-1,1-dimethyl-1,2,3,4-tetrahydroisoquinoline]",2.4,97
"Cc1noc(C)c1-c1ccc2c(c1)CNCC2c1ccc(Cl)c(Cl)c1 (centres unmarked) [Example 25, 4-(4-(3,4-dichlorophenyl)-1,2,3,4-tetrahydroisoquinolin-7-yl)-3,5-dimethylisoxazole]",47.3,195
"Clc1ccc(C2CNCc3cc(-c4cccnn4)ccc32)cc1Cl (centres unmarked) [Example 33, 4-(3,4-dichlorophenyl)-7-(pyridazin-3-yl)-1,2,3,4-tetrahydroisoquinoline]",15.4,26.4
"Nc1ccc(-c2ccc3c(c2)CNCC3c2ccc(Cl)c(Cl)c2)nn1 (centres unmarked) [Example 34, 6-(4-(3,4-dichlorophenyl)-1,2,3,4-tetrahydroisoquinolin-7-yl)pyridazin-3-amine]",7.1,22.9
"CC1(C)NCC(c2ccc(Cl)c(Cl)c2)c2ccc(-c3ccc4ncnn4c3)cc21 (centres unmarked) [Example 40, 4-(3,4-dichlorophenyl)-7-([1,2,4]triazolo[1,5-a]pyridin-6-yl)-1,1-dimethyl-1,2,3,4-tetrahydroisoquinoline]",2.1,51

# — patent publication US9034899B2, “Aryl, heteroaryl, and heterocycle substituted tetrahydroisoquinolines and use thereof” (Albany Molecular Research, Inc., priority 2009, dated 2015)
